Measured values as given in the CheMixHub viscosity set.

Experiment: xn = mol fraction of the nth substance listed

CCCCOCCOCCO + CCN(CC)CC
viscosity [mPa·s], 100 kPa
Settings	298.15 K	303.15 K	308.15 K
x1 = 0.05083	0.4832	0.4499	0.4246
x1 = 0.1	0.6109	0.5597	0.5234
x1 = 0.15	0.7524	0.6836	0.637
x1 = 0.2	0.9081	0.8131	0.7543
x1 = 0.3	1.246	1.108	1.021
x1 = 0.3999	1.641	1.447	1.324
x1 = 0.5	2.105	1.837	1.669
x1 = 0.5999	2.629	2.278	2.067
x1 = 0.6995	3.213	2.776	2.496
x1 = 0.8	3.822	3.271	2.93
x1 = 0.8998	4.474	3.817	3.419
x1 = 0.9499	4.793	4.075	3.631

C1CC[NH2+]C1.CCCCCCCC(=O)[O-] + CCO
viscosity [mPa·s], 101 kPa
Settings	x1 = 0.1638	x1 = 0.3038	x1 = 0.4308	x1 = 0.5046	x1 = 0.5837	x1 = 0.7453	x1 = 0.838	x1 = 0.9223
293.15 K	3.7	8.2	14	17.06	23.1	36.6	47.3	58.2
298.15 K	3.85	7.02	12.99	16.3	21.3	34.08	44.23	52.4
303.15 K	3	5.7	10.5	13.39	17.6	29.14	36.3	42.7
308.15 K	2.9	7.3	11.21	14.5	18.1	25.4	31.3	36.4
313.15 K	2.7	6.8	9.8	11.79	15	22	26.8	30.3
